In US20250032430A1, “USES OF RHODOQUINONE FOR THE TREATMENT OF DISEASE” (Whitehead Institute for Biomedical Research, priority 2021, published 2025):

How the values were obtained:
[1] = tested on: 143B cells; assay: Cell proliferation; assay type: cell-based, human; conditions: for proliferation: UQCRC2 and COX4 knockout cells
Method: Proliferation: 25,000 cells were seeded in 6-well dishes and counted on day 1 and day 5 on a Beckman Coulter Counter. Doubling times were calculated using the following equation: […]

[2] = molecular target: T1, SDH complex (Homo sapiens, UniProt O14521+P21912+P31040+Q99643); assay: SDH forward/reverse activity (succinate oxidation, fumarate reduction) by stable isotope tracing in cells; assay type: cell-based
T1 construct: endogenous in cells; host or cells: 143B cells (A5: live cells; A6: permeabilized mitochondria purified from them)
T1 sequence (P31040 43-664): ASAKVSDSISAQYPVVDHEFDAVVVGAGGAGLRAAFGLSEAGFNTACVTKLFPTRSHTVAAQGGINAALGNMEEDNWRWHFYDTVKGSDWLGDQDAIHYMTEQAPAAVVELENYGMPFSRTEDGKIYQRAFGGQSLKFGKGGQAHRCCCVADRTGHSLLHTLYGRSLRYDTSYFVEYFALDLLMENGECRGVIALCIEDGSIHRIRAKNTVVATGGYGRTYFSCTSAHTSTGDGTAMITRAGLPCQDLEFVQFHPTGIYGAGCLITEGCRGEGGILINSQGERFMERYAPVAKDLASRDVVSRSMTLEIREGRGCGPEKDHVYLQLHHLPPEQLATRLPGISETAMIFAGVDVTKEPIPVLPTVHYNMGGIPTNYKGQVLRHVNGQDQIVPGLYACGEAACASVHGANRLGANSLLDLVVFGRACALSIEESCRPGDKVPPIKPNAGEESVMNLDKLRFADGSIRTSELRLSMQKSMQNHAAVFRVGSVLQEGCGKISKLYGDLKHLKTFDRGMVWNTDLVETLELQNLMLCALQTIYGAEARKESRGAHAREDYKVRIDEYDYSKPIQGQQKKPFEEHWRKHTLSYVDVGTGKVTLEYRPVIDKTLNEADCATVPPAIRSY
T1 sequence (P21912 29-280): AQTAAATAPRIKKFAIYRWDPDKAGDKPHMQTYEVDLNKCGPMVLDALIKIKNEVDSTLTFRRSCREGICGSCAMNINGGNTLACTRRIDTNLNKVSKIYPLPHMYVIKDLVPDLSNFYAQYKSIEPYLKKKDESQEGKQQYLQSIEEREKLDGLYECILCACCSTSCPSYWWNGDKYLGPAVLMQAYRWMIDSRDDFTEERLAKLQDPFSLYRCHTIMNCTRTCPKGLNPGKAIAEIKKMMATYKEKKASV
T1 sequence (Q99643 30-169): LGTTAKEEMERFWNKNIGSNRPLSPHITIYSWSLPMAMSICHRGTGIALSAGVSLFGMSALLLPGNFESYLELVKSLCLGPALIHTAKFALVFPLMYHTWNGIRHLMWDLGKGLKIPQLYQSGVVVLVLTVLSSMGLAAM
T1 sequence (O14521 57-159): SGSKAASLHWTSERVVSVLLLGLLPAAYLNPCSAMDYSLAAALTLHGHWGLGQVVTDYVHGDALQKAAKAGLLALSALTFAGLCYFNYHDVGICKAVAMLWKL
Source text: Fumarate reduction can be monitored in cells by the stable isotope tracing of either ^13C4-aspartate or ^13C5^15N2-glutamine. ^13C4-aspartate contributes to the fumarate pool via oxaloacetate and malate and so should lead to the production of ^13C4-succinate upon fumarate reduction (FIG. 2B). ^13C5^15N2-glutamine contributes to the fumarate pool through the reductive arm of the TCA cycle via glutamate, α-ketoglutarate, isocitrate, citrate, oxaloacetate, and malate. A key distinction between the two labeling approaches is that ^13C5^15N2-glutamine enriches the fumarate pool more upon antimycin treatment due to enhanced reductive carboxylation flux, whereas ^13C4-aspartate labels the fumarate pool to equivalent extents in vehicle and antimycin-treated cells (FIG. 2C). Therefore, with stable isotope tracing of ^13C4-aspartate, the level of ^13C4-succinate is a direct measure of fumarate reduction, whereas the stable isotope tracing of ^13C5^15N2-glutamine requires a ratiometric analysis of labeled succinate to labeled fumarate to normalize for differences in the extent of fumarate labeling.
To test if hypoxia triggers electron leakage onto fumarate or a net-reversal of the SDH complex, the ^13C5^15N2-glutamine tracer was utilized, which enables simultaneous quantification of the forward and reverse activities of SDH through the generation of unique isotopologues upon flux through the oxidative arm (α-ketoglutarate to succinate) compared to the reductive arm (α-ketoglutarate—via citrate—to fumarate) of the TCA cycle (FIG. 2E). In this assay, the forward (succinate oxidation) reaction was defined as the ratio of percent labeled ^13C4-fumarate to its precursor ^13C4-succinate (FIG. 2E) and the reverse (fumarate reduction) as that of percent labeled ^13C3-succinate to its precursor ^13C3-fumarate (FIG. 2E). This type of analysis can be performed when the labeling is in the steady-state, which was determined to be after 4-8 hours of incubation with ^13C5^15N2-glutamine (FIG. S2E-F). This ratiometric analysis of the succinate and fumarate isotopologues eliminates potential biases in the assay, such as higher ^13C3-fumarate labeling in antimycin-treated cells caused increased reductive carboxylation flux (FIG. S2E).
Stable isotope tracing in cells: Cells were seeded 24 hours prior to the experiment in 6-well dishes at 70% density. For stable isotope tracing of glutamine, glutamine-free DMEM (ThermoFisher) was supplemented with 2 mM ^13C5^15N2-glutamine (Sigma), 1 mM pyruvate, 5% FBS, 1% P/S, 0.1 mg/mL uridine. For stable isotope tracing of aspartate, DMEM containing 5% FBS, and 1% penicillin and streptomycin, and 0.1 mg/mL uridine (Sigma) was supplemented with the designated amount of 13C4-aspartate (Sigma) and the pH adjusted to 7.4. Uridine was left out of the media for stable isotope tracing experiments measuring nucleotide biosynthesis. Unless otherwise stated, for all experiments, cells were treated for 8 hours and metabolites were isolated as described below. Relevant compounds were added at the start of the incubation periods.

[3] = tested on: SDH complex; assay: SDH activity assay in permeabilized purified mitochondria; assay type: biochemical, human; conditions: permeabilized purified mitochondria; 1 μM piericidin
Method: SDH activity was examined in permeabilized purified mitochondria. The rate of succinate oxidation was measured by monitoring fumarate production over time after initiating the reaction with succinate. The rate of fumarate reduction was measured in a separate assay by monitoring the rate of succinate production over time after initiating the reaction with fumarate and NADH. […] Moreover, complex I inhibition by piericidin suppressed the fumarate reduction caused by antimycin treatment (FIG. 2I).
(§1) Isolation of Mitochondria for Biochemical Assays: 143B cells were scraped and pelleted at 1000×g for 5 minutes. Cell pellets were washed in 1×PBS and pelleted at 1000×g for 5 minutes. For tissue samples, approximately 100 mg of tissue powder was weighed out. Tissue powder or cells were re-suspended in isolation buffer (200 mM sucrose, 10 mM Tris HCl, 1 mM EGTA/Tris, pH 7.4 (adjusted with 1M HEPES)), transferred into an ice-cold glass homogenizer (VWR), and dounced with 15-30 strokes. Homogenates were transferred into tubes and spun at 600×g for 10 minutes at 4° C. Supernatants were moved to a new tube and centrifugation was repeated. Then, supernatants were moved to a new tube and pelleted at 7,000×g for 10 minutes at 4° C. Pellets were washed in isolation buffer and centrifugation was repeated. Pellets were subsequently stored at −80° C. until use.
SDH Activity Assay: Purified mitochondria were re-suspended in buffer (0.22 M Mannitol, 0.075 M Sucrose, 1 mM EDTA, 10 mM HEPES pH 7.4, and one complete Protease inhibitor tablet (Sigma)) to a concentration of 5 mg/mL and underwent 5 freeze-thaw cycles to permeabilize them. 30 μg mitochondria (6 uL) were diluted 1:10 (in 54 uL) of SDH activity assay buffer (27.5 mM KH2PO4 pH 7.4, 1.1 mM CoQ-10 (Sigma), 3.5 g/L BSA). Reactions were supplemented with DMSO, 1 μM antimycin, or 1 μM piericidin and pre-incubated at 37° C. for 10 minutes. […] Samples were centrifuged at 16,000×g for 10 minutes at 4° C. and supernatants were dried down and analyzed by LC-MS for succinate and fumarate.

[4] = molecular target: DHODH (Homo sapiens, UniProt Q02127)
DHODH, sequence (Q02127 whole entry): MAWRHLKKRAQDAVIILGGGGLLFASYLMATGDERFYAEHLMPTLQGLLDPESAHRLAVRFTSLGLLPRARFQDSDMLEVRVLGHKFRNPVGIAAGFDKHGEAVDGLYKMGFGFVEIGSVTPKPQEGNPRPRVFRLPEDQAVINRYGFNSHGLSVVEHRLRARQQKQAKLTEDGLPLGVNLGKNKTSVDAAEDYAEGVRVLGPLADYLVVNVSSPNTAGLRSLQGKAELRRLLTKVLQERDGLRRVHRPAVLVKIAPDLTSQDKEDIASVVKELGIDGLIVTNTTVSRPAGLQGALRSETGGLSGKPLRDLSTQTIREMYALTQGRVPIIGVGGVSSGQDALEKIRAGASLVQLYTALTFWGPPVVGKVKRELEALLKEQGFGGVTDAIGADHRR
Method: Isolation of metabolites from adherent cells: To isolate metabolites, media was removed, cells were washed 2 times with ice cold 1×PBS, and wells were covered in LC-MS grade 80:20 Methanol:Water (ThermoFisher). Plates were scraped on dry ice and lysates were collected into eppendorf tubes. Lysates were vortexed for 10 minutes at 4° C. and centrifuged at 16,000×g for 10 minutes at 4° C. Supernatants were immediately dried down in a Refrigerated CentriVap Benchtop Vacuum Concentrator connected to a CentriVap-105 Cold Trap (Labconco). Dried pellets were stored at −80° C. until they were run on LC-MS.
Liquid Chromatography and Mass Spectrometry (polar): A QExactive bench top orbitrap mass spectrometer equipped with an Ion Max source and a HESI II probe coupled to a Dionex UltiMate 3000 HPLC system (Thermo Fisher Scientific) was used to perform all LC-MS experiments. The instrument underwent mass calibration using the standard calibration mixture every 7 days. 2 μL of re-suspended polar metabolite samples were injected onto a SeQuant ZIC-pHILIC 5 μm 150×2.1 mm analytical column equipped with a 2.1×20 mm guard column (MilliporeSigma). The column oven was held at 25° C. and the autosampler tray was held at 4° C. Buffer A was comprised of 20 mM ammonium carbonate, 0.1% ammonium hydroxide. Buffer B was comprised of 100% acetonitrile. The chromatographic gradient was run at a flow rate of 0.150 mL/min as follows: 0-20 min: linear gradient from 80-20% B; 20-20.5 min: linear gradient from 20-80% B; 20.5-28 min: hold at 80% B. The mass spectrometer was operated in full-scan, polarity-switching mode, with the spray voltage set to 3.0 kV, the heated capillary at 275° C., and the HESI probe at 350° C. The sheath gas flow was 40 units, the auxiliary gas flow was 15 units, and the sweep gas flow was 1 unit. MS data was collected in a range of m/z=70-1000. The resolution set at 70,000, the AGC target at 1×106, and the maximum injection time at 20 msec. An additional scan (m/z=220-700) was included in negative mode only to enhance detection of nucleotides.

[5] = tested on: 143B cells; assay: Oxygen consumption rate of cultured cells; assay type: cell-based, human; conditions: UQCRC2 and COX4 knockout cells
Method: Oxygen Consumption Rate (Seahorse): Respiration was measured on intact 143B cells and on mitochondria purified from tissue on the Seahorse XFe-96 Analyzer (Seahorse Bioscience). Cells were incubated in a non-CO2 37° C. incubator in serum-free Seahorse XF RPMI Media (Seahorse Bioscience, Catalog #103336) supplemented with 5 mM glucose, 2 mM glutamine, and 1 mM pyruvate. Oxygen consumption rate (OCR) was measured over a period of 30 minutes. Oxygen consumption rate was also measured on mitochondria purified from mouse tissues. Mitochondria were incubated in MAS buffer (70 mM sucrose, 220 mM mannitol, 10 mM KH2PO4, 5 mM MgCl2, 2 mM HEPES pH 7.2, 1 mM EGTA, 2% BSA) supplemented with 2 mM ADP, 5 mM glutamate, 5 mM malate, 5 mM pyruvate, and 2.5 mM succinate. Oxygen consumption rate (OCR) was measured over a period of 30 minutes.
Oxygen Consumption Rate (Resipher): 25,000 143B cells were seeded into Thermo Nunc Treated, Flat-Bottom 96-Well Microplate (167008) in standard culture medium 24 hours prior to experimentation. […] Live oxygen consumption rate was measured for 3 hours and then media was changed to treat cells with the appropriate inhibitors. Live oxygen consumption rate was monitored for an additional 3 hours. Data were analyzed on Resipher web application (Lucid Scientific).

[6] = tested on: mitochondrial membrane potential; assay: Mitochondrial membrane potential (TMRE dye); assay type: cell-based, human; conditions: 250 nM CCCP
Method: Live Cell Imaging: 143B cells were seeded at 50% density in 6-well dishes 24 hours prior to the experiment. Cells were pre-incubated with 500 nM TMRE dye for 30 minutes and then imaging on a Nikon TE2000 inverted microscope was started. Images were taken at 1 minute intervals over the course of an hour in the mCherry channel while the plate was incubated in a chamber maintaining a temperature of 37° C. and 5% CO2.
Flow Cytometry: Cells were seeded 24 hours prior to the experiment at 50% density. On the day of the experiment, the cells were treated for the designated time with inhibitors. 30 minutes prior to the end of the incubation, 500 nM TMRE dye was added to the wells. Following incubation cells were washed, trypsinized, and filtered through a cell strainer prior to sorting. Fluorescence-activated cell sorting was performed on a LSR-II sorter, in which the fluorescence intensity of individual cells was quantified in the PE channel. Data were analyzed using FlowJo software (TreeStar).

[7] = tested on: complex I; assay: Complex I activity assay (DCPIP) on purified mitochondria; assay type: biochemical, human; conditions: mitochondria from wild-type, UQCRC2 KO and COX4 KO 143B cells; 1 μM rotenone
Method: as §1
Complex 1 activity assay (DCPIP): Purified mitochondria were re-suspended in buffer (0.22 M Mannitol, 0.075 M Sucrose, 1 mM EDTA, 10 mM HEPES pH 7.4, and one complete Protease inhibitor tablet (Sigma)) to a concentration of 5 mg/mL. […] Either 1 μM rotenone or equivalent DMSO was added to each well and baseline absorbance at 600 nm was measured on a SpectraMax iD5 plate reader (Molecular Devices). Reactions were initiated by adding NADH (Sigma) to a final concentration of 2 mM and absorbance at 600 nm was monitored over time.

With `O=C(O)CC(=O)O` [malonic acid] the proliferation [1] was “significantly reduced”, the fumarate reduction ([2]; SDHB knockout cells) was “no effect” and the fumarate reduction ([2]; UQCRC2 and COX4 knockout cells) was “almost completely ablated”.

`C/C=C(\C)[C@H](O)[C@H](C)/C=C(C)/C=C/C/C(C)=C/Cc1nc(OC)c(OC)c(O)c1C` [piericidin] was tested, and the “fumarate reduction caused by antimycin treatment” value [3] was “suppressed”, the “DHODH activity (13C4-aspartate into 13C3-UTP)” value ([4]; combined inhibition of complex III with antimycin and complex I with piericidin) was “no effect” and the proliferation [1] was “did reduce their proliferation, although to a lesser extent than in wild-type cells”. For the same compound, the O2 consumption rate [5] was “did not affect”.

With `Cc1c(-c2ccc(-c3ccccc3F)cc2)nc2ccc(F)cc2c1C(=O)O` [brequinar] the 13C3-UTP biosynthesis ([4]; UQCRC2 and COX4 knockout 143B cells, 2 μM brequinar) was “ablated”, the “de novo UTP biosynthesis (13C3-UTP generation, DHODH activity)” value ([4]; wild-type 143B cells, 13C4-aspartate tracing 8 hours, 500 nM antimycin, 2 μM brequinar) was “ablated” and the proliferation [1] was “reduced”. For the same compound, the “aspartate-increased proliferation of antimycin-treated cells” value ([1]; culture media supplemented with aspartate, antimycin-treated cells) was “ablated” and the O2 consumption rate [5] was “no effect”.

For `N#CC(C#N)=NNc1cccc(Cl)c1` [CCCP, Carbonyl cyanide 3-chlorophenylhydrazone], the TMRE fluorescence [6] was “reduced fluorescence”.

In the case of `CC1(C)CC(NC(=O)C[P+](c2ccccc2)(c2ccccc2)c2ccccc2)CC(C)(C)N1[O]` [MitoTEMPO], the fumarate reduction ([2]; antimycin-treated 143B cells) is reported as “did not affect” and the fumarate reduction ([2]; vehicle-treated 143B cells) is reported as “significant decrease”.

With `C=C(C)[C@H]1Cc2c(ccc3c2O[C@@H]2COc4cc(OC)c(OC)cc4[C@@H]2C3=O)O1` [rotenone] the “complex I activity” value [7] was “significantly reduced”.

With `COC(=O)CCC(=O)OC` [dimethylsuccinate] the “increase in fumarate reduction caused by antimycin treatment” value ([2]; 143B cells, antimycin co-treatment) was “slightly suppressed”.
